The results in this text go back to patent US11066369B2, “N-(pyridin-2-yl)pyridine-sulfonamide derivatives and their use in the treatment of disease” (Novartis AG, priority 2016, dated 2021).

Structures can show the parent of a compound that is named as a salt.

The target of this assay is T1, horseradish peroxidase (HRP) tagged delF508-CFTR (Homo sapiens, UniProt P13569, DEL508-508).
T1 construct: expressed in transfected cells
Briefly: Measurement of delF508-CFTR-HRP surface expression in CFBE41o- cells.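 For DelF508-CFTR-HRP Amax %: percent efficacy relative to reference corrector lumacaftor.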 Type of assay: cell-based. To be noted: delF508-CFTR-HRP surface expression, CFBE41o- cells; for Emax: read-out: DelF508-CFTR-HRP Amax %; for EC50: read-out: DelF508-CFTR-HRP EC50. The text has this:
Measurement of delF508-CFTR-HRP Surface Expression in CFBE41o-Cells
This assay quantifies the cell surface expressions of the mutant CFTR channel using an extracellular HRP tag.
A cellular assay was developed to measure surface expression of horseradish peroxidase (HRP) tagged delF508-CFTR in the human bronchial epithelial immortalized CFBE41o-cell line (Phuan, P. W., et al, (2014) Molecular Pharmacology 86:42-51). Specifically, the HRP sequence was inserted into the fourth extracellular loop of delF508-CFTR and stably expressed in CFBE41o-cells. Cells were seeded in 384 well plate at a density of 5000 cells/well and incubated at 37° C. for 12 to 24 hours in medium (Gibco MEM #11095, 10% FBS, 10 mM HEPES, […], 200 μg/mL G418, 3 μg/mL Puromycin). The delF508-CFTR-HRP expression was induced with 500 ng/mL doxycycline (Sigma D-9891, dissolved in H2O and sterile filtered) in medium and the cells were incubated at 37° C. for 48h. Old medium was removed and fresh medium was added containing 500 ng/mL doxycycline and unknown test compound at required test concentration in DMSO, not exceeding 0.5% final DMSO concentration. The highest concentration tested was 10 μM with a 10-point concentration response curve using a 3-fold dilution. After addition of compounds, the cells were incubated for 24h at 37° C. On the final day, cells were washed four times in PBS containing 1 mM MgCl2 and 0.1 mM CaCl2. HRP-Substrate (SuperSignal ELISA Pico, Fisher #37069) 20 μl/well was added and the luminescence signal was determined (Viewlux, Perkin Elmer). Light was emitted upon addition of exogenous HRP-Substrate only when delF508-CFTR-HRP reached the cell surface and the HRP tag was accessible to the HRP-Substrate (note: HRP-Substrate cannot cross the lipid bilayer to reach delF508-CFTR-HRP misfolded within the cell).
The median activity for the lowest concentration of the compounds on each assay plate was calculated and this value was used to normalize the signal for each well on the respective plate. Three replicates at each concentrations for every compound were run to determine one EC50. The median value was determined and used to calculate compound activities as described below. Effective half maximal values (EC50) were calculated for each compound by performing logistic regression on measured dose-response data points using the equation:
[formula] where “Y” is the observed activity, “Bottom” is the lowest observed value, “Top” is the highest observed value, and the “Hill coefficient” gives the largest absolute value of the slope. The curve fitting is carried out by a curve fitting program implemented at GNF using Matlab (Mathworks).
The dose response curves also were used to calculate Fold Change (FC) using the equation: […]
Compound efficacy relative to the reference compound 3-(6-(1-(2,2-difluorobenzo[d][1,3]dioxol-5-yl)cyclopropane-1-carboxamido)-3-methylpyridin-2-yl)benzoic acid was determined using the following formula: […]

T1 sequence (P13569 with tags, fused parts or gaps DEL508-508): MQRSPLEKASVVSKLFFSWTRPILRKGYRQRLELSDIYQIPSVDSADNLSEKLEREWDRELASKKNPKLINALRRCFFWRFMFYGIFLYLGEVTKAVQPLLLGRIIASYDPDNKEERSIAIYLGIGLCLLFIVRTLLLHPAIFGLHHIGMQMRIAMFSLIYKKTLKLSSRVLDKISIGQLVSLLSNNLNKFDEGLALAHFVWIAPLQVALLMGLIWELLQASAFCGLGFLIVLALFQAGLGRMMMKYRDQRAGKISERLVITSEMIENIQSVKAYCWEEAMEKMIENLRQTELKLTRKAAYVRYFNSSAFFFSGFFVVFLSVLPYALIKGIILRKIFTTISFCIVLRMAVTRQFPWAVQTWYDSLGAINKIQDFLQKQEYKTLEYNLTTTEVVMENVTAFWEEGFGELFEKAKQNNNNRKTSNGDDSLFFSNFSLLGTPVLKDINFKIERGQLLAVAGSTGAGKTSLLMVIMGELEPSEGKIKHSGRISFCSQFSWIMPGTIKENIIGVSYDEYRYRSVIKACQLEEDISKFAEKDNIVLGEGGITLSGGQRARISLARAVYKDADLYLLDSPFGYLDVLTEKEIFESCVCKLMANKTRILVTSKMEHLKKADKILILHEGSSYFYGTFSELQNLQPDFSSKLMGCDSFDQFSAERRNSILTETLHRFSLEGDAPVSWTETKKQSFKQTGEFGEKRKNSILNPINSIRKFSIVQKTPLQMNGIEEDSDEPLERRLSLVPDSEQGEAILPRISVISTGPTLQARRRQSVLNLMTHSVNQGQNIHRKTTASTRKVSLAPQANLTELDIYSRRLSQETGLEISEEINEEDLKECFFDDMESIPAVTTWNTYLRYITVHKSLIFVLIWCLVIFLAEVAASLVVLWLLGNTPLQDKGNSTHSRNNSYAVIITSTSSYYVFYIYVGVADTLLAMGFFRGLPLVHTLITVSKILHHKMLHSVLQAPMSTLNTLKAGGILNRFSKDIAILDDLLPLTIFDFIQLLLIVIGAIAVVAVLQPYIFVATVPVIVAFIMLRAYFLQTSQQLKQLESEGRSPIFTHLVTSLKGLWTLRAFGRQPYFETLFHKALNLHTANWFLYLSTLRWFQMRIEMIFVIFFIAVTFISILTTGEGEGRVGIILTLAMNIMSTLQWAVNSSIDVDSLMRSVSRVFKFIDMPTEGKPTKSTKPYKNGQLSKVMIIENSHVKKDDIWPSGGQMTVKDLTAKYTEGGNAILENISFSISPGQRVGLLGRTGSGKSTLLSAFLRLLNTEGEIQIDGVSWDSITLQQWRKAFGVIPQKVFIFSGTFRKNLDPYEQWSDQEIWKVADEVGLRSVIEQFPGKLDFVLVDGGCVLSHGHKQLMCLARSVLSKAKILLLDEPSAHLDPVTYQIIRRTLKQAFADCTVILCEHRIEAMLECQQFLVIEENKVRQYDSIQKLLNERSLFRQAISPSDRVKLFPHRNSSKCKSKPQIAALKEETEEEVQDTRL

One may read the EC50 as the concentration needed to bring the measured effect to its halfway point. With `Cc1ccc(F)c(-c2nc(NS(=O)(=O)c3cccc(N)n3)ccc2Cl)c1Cl` [Example 58, 6-amino-N-(5-chloro-6-(2-chloro-6-fluoro-3-methylphenyl)pyridin-2-yl)pyridine-2-sulfonamide], the Emax is 270% and the EC50 worked out at 1780 nM.
On the same counts, the results for `Nc1cccc(S(=O)(=O)Nc2ccc(Cl)c(-c3ccccc3OC(F)(F)F)n2)n1` [Example 59, 6-amino-N-(5-chloro-6-(2-(trifluoromethoxy)phenyl)pyridin-2-yl)pyridine-2-sulfonamide] are 258% and 1100 nM.
In the same order, the values of `Cc1cccc(F)c1-c1nc(NS(=O)(=O)c2ccc(N)nc2)ccc1Cl` [Example 60, 6-amino-N-(5-chloro-6-(2-fluoro-6-methylphenyl)pyridin-2-yl)pyridine-3-sulfonamide] are 253% and 2980 nM.
In the same order, the values of `Cc1cc(NS(=O)(=O)c2cccc(N)n2)nc(-c2c(C)cccc2C)c1` [Example 63, 6-amino-N-(6-(2,6-dimethylphenyl)-4-methylpyridin-2-yl)pyridine-2-sulfonamide] are 226% and 2690 nM.
Consider `Cc1ccc(C#N)cc1-c1nc(NS(=O)(=O)c2ccnc(N)c2)ccc1C(F)(F)F` [Example 64, 2-amino-N-(6-(5-cyano-2-methylphenyl)-5-(trifluoromethyl)pyridin-2-yl)pyridine-4-sulfonamide], for which the Emax turned out to be 223% and the EC50 was found to be 1960 nM.
On the same counts, the results for `Nc1cccc(S(=O)(=O)Nc2ccc(Cl)c(-c3ccccc3C(F)F)n2)n1` [Example 65, 6-amino-N-(5-chloro-6-(2-(difluoromethyl)phenyl)pyridin-2-yl)pyridine-2-sulfonamide] are 220% and 1540 nM.
On the same counts, the results for `Cc1ccccc1-c1nc(NS(=O)(=O)c2cccc(N)n2)ccc1C1CC1` [Example 66, 6-amino-N-(5-cyclopropyl-6-(o-tolyl)pyridin-2-yl)pyridine-2-sulfonamide] are 215% and 3070 nM.
Regarding `Cc1cccc(C)c1-c1cccc(NS(=O)(=O)c2cccc(N)n2)n1` [Example 68, 6-amino-N-(6-(2,6-dimethylphenyl)pyridin-2-yl)pyridine-2-sulfonamide], the Emax worked out at 209% and the concentration giving a half-maximal response (EC50) came out at 2420 nM.
In the same order, the values of `Nc1cccc(S(=O)(=O)Nc2ccc(Cl)c(-c3ccccc3F)n2)n1` [Example 69, 6-amino-N-(5-chloro-6-(2-fluorophenyl)pyridin-2-yl)pyridine-2-sulfonamide] are 199% and 3300 nM.
Take `Cc1ccccc1-c1nc(NS(=O)(=O)c2cccc(N)n2)ccc1F` [Example 70, 6-amino-N-(5-fluoro-6-(o-tolyl)pyridin-2-yl)pyridine-2-sulfonamide]: the Emax came out at 197% and the EC50 was found to be 2640 nM.
On to `Cc1cc(F)ccc1-c1nc(NS(=O)(=O)c2ccc(N)nc2)ccc1Cl` [Example 71, 6-amino-N-(5-chloro-6-(4-fluoro-2-methylphenyl)pyridin-2-yl)pyridine-3-sulfonamide], for which the Emax was 196% and the EC50 worked out at 3550 nM.
Regarding `COc1ccc(NS(=O)(=O)c2cccc(N)n2)nc1-c1c(C)cccc1C` [Example 72, 6-amino-N-(6-(2,6-dimethylphenyl)-5-methoxypyridin-2-yl)pyridine-2-sulfonamide hydrochloride], the Emax is 193% and the 50% effective concentration (EC50) is 3410 nM.
On the same counts, the results for `Cc1ccccc1-c1nc(NS(=O)(=O)c2cccc(N)n2)ccc1C` [Example 75, 6-amino-N-(5-methyl-6-(o-tolyl)pyridin-2-yl)pyridine-2-sulfonamide] are 158% and 2840 nM.
On the same counts, the results for `COc1ccccc1-c1nc(NS(=O)(=O)c2cccc(N)n2)ccc1Cl` [Example 76, 6-amino-N-(5-chloro-6-(2-methoxyphenyl)pyridin-2-yl)pyridine-2-sulfonamide] are 156% and 2300 nM.
In the same order, the values of `Cc1ccc(NS(=O)(=O)c2cccc(N)n2)nc1-c1ccccc1Cl` [Example 77, 6-amino-N-(6-(2-chlorophenyl)-5-methylpyridin-2-yl)pyridine-2-sulfonamide Hydrochloride] are 152% and 2550 nM.
Consider `Nc1cccc(S(=O)(=O)Nc2ccc(Cl)c(-c3c(F)ccc(F)c3F)n2)n1` [Example 78, 6-amino-N-(5-chloro-6-(2,3,6-trifluorophenyl)pyridin-2-yl)pyridine-2-sulfonamide], for which the Emax came to 141% and the 50% effective concentration (EC50) was 2730 nM.
For the compound `Nc1cccc(S(=O)(=O)Nc2ccc(C(F)(F)F)c(-c3cccc(C(F)(F)F)c3)n2)n1` [Example 79, 6-amino-N-(5-(trifluoromethyl)-6-(3-(trifluoromethyl)phenyl)pyridin-2-yl)pyridine-2-sulfonamide], the Emax stood at 141% and the EC50 amounted to 2300 nM.
In the same order, the values of `Cc1cccc(C)c1-c1nc(NS(=O)(=O)c2ccc(Br)c(N)n2)ccc1Cl` [Example 81, 6-amino-5-bromo-N-(5-chloro-6-(2,6-dimethylphenyl)pyridin-2-yl)pyridine-2-sulfonamide] are 127% and 1980 nM.
On the same counts, the results for `Cc1ccc(OC(F)(F)F)cc1-c1nc(NS(=O)(=O)c2cccc(N)n2)ccc1C(F)(F)F` [Example 82, 6-amino-N-(6-(2-methyl-5-(trifluoromethoxy)phenyl)-5-(trifluoromethyl)pyridin-2-yl)pyridine-2-sulfonamide] are 124% and 942 nM.
`Cc1ccc(C#N)cc1-c1nc(NS(=O)(=O)c2cccc(N)n2)ccc1C(F)(F)F` [Example 83, 6-amino-N-(6-(5-cyano-2-methylphenyl)-5-(trifluoromethyl)pyridin-2-yl)pyridine-2-sulfonamide]: the Emax turned out to be 115% and the EC50 turned out to be 4110 nM.
In the same order, the values of `Cc1ccc(C#N)cc1-c1nc(NS(=O)(=O)c2cccc(N)n2)ccc1Cl` [Example 84, 6-amino-N-(5-chloro-6-(5-cyano-2-methylphenyl)pyridin-2-yl)pyridine-2-sulfonamide] are 111% and 1540 nM.
On the same counts, the results for `Cc1ccc(C#N)cc1-c1nc(NS(=O)(=O)c2ccnc(N)c2)ccc1Cl` [Example 85, 2-amino-N-(5-chloro-6-(5-cyano-2-methylphenyl)pyridin-2-yl)pyridine-4-sulfonamide] are 110% and 3680 nM.
In the same order, the values of `Nc1cccc(S(=O)(=O)Nc2ccc(Cl)c(-c3c(F)cc(F)cc3F)n2)n1` [Example 86, 6-amino-N-(5-chloro-6-(2,4,6-trifluorophenyl)pyridin-2-yl)pyridine-2-sulfonamide] are 108% and 3530 nM.
For the compound `Cc1c(C#N)cccc1-c1nc(NS(=O)(=O)c2ccnc(N)c2)ccc1Cl` [Example 87, 2-amino-N-(5-chloro-6-(3-cyano-2-methylphenyl)pyridin-2-yl)pyridine-4-sulfonamide], the Emax stood at 93.8% and the EC50 was 4100 nM.
For the compound `Cc1ccccc1-c1nc(NS(=O)(=O)c2cccnc2N)ccc1Cl` [Example 88, 2-amino-N-(5-chloro-6-(o-tolyl)pyridin-2-yl)pyridine-3-sulfonamide], the Emax came to 92.9% and the half-maximal effective concentration (EC50) worked out at 3780 nM.
On the same counts, the results for `N#Cc1ccccc1-c1nc(NS(=O)(=O)c2cccc(N)n2)ccc1Cl` [Example 90, 6-amino-N-(5-chloro-6-(2-cyanophenyl)pyridin-2-yl)pyridine-2-sulfonamide] are 50% and 3780 nM.
In the same order, the values of `Cc1cc(C#N)ccc1-c1nc(NS(=O)(=O)c2cccc(N)n2)ccc1Cl` [Example 91, 6-amino-N-(5-chloro-6-(4-cyano-2-methylphenyl)pyridin-2-yl)pyridine-2-sulfonamide] are 41.7% and 2200 nM.
